# In US8633201B2, “Thienopyrimidines having Mnk1/Mnk2 inhibiting activity for pharmaceutical compositions” (Boehringer Ingelheim International GmbH, priority 2006, dated 2014):
# What was measured:
# [1] = test system: cell culture cells, transfected with Mnk2 (Mnk2a or Mnk2b) or Mnk1; settings: addition to cell culture cells transfected with Mnk2 (Mnk2a or Mnk2b) or Mnk1; cited from earlier work
# [2] = test system: db/db mice; test: 14-day oral treatment study in db/db mice (body weight, blood glucose, plasma and pancreas parameters); type: in vivo; settings: oral gavage
# Method: BKS.Cg-m+/+Lepr^db/J (Charles River Laboratories) male mice (commonly referred to as db/db mice) are deficient in the […] due a spontaneous point mutation. They are maintained on the C57BL6/J strain.
# Mice are housed four by cage at a temperature of 22-24° C. and a day/night cycle of […] (05:00-19:00-05:00), and obtain standard chow and tap water ad libitum. Mice are allowed to adapt to housing and environment for 14 days prior to substance administration.
# Compound suspensions in 0.3% Methylcellulose in saline are prepared freshly just prior to administration.
# Substances will be administered by oral gavage in the morning at 07:00, one hour before determining fed blood glucose levels and body weight. In the evening, substance is administered between 17:00 and 18:00. Animals are visually monitored for 1 hour after the administrations.
# Dosing is chosen based on the results of pharmacokinetic (PK) and dose tolerability studies. […]
# Animals are being supplied one week in advance to allow for adaptation to housing and environment. During that time, body weight and fed blood glucose are measured daily. […]
# Bodyweight and bloodglucose were measured three times a week. At the end of the study pancreatic insulin content and plasma parameters were determined.
compound,measurement,setting,value
Nc1ncnc2n[nH]c(Nc3ccc(F)cc3)c12 [CGP57380],phosphorylated eIF4E,[1],strong reduction
"NC(=O)c1ccc(Nc2ncnc3ccsc23)c(OC2CCOC2)c1 (stereo not drawn) [Compound 15, 3-(Tetrahydrofuran-3-yloxy)-4-(thieno[3,2-d]pyrimidin-4-ylamino)-benzamide]",random fed blood glucose,"[2]; during the 14 day study, FIG. 2",progressive improvement
CN(CCOc1ccc(CC2SC(=O)NC2=O)cc1)c1ccccn1 (stereo not drawn) [Rosiglitazone],body weight compared to vehicle,"[2]; d1 to d14, FIG. 1",significant increased in body weight
